# From ChEMBL document CHEMBL6134767, “Advances in antibacterial agents for Mycobacterium fortuitum” (2025)
# How the values were obtained:
# Type in all cases: functional
# [1] = system: Mycolicibacterium fortuitum; test: Antibacterial activity against Mycobacterium fortuitum ATCC 6841 assessed as reduction in bacterial growth by micro-dilution method
# [2] = system: Mycolicibacterium fortuitum; test: Antibacterial activity against Mycobacterium fortuitum assessed as reduction in bacterial growth
# [3] = system: Mycolicibacterium fortuitum; test: Antibacterial activity against Mycobacterium fortuitum ATCC 49404 assessed as bacterial growth inhibition incubated for 72 hrs by CLSI protocol based micro-dilution method
# [4] = system: Mycolicibacterium fortuitum; test: Antibacterial activity against Mycobacterium fortuitum ATCC 6841 assessed as bacterial growth inhibition incubated for 72 hrs by CLSI protocol based micro-dilution method
# [5] = system: Mycolicibacterium fortuitum; test: Antimycobacterial activity against Mycobacterium fortuitum ATCC 19542 assessed as bacterial growth inhibition incubated for 72 hrs by resazurin dye based broth microdilution method
# [6] = system: Mycolicibacterium fortuitum; test: Antimycobacterial activity against Mycobacterium fortuitum PCM 672 assessed as reduction in microbial growth incubated for 72 hrs by resazurin dye based broth microdilution method
# [7] = system: Mycolicibacterium fortuitum; test: Antimycobacterial activity against Mycobacterium fortuitum ATCC 6841 assessed as reduction in microbial growth
# [8] = system: Mycolicibacterium fortuitum; test: Antibacterial activity against Mycobacterium fortuitum ATCC 6841 assessed as bacterial growth inhibition incubated for 4 days by CLSI protocol based broth micro-dilution method; settings: ATCC 6841, 96 h, time 4 day
smiles,measurement,setting,value
Cc1cc(O)c([C@]2(C)CC[C@@H]3C[C@@]32C)cc1Br,MIC,[1],42.3 µM
C=C1[C@@H](C)CC[C@@]2(C)[C@H]1CC=C(C=O)[C@]2(O)C=O,MIC,[1],64.4 µM
CC(C)=CCC/C(C)=C/CNCCNC1C2CC3CC(C2)CC1C3 (stereo not given) [SQ109],MIC,[2],3.02 µM
C=C1C[C@@]23CC[C@H]4[C@@](C)(CCC[C@@]4(C)C=O)[C@@H]2CC[C@@H]1C3,MIC,[1],51.6 µM
NCC[C@H](O)C(=O)N[C@@H]1C[C@H](N)[C@@H](O[C@H]2O[C@H](CN)[C@@H](O)[C@H](O)[C@H]2O)[C@H](O)[C@H]1O[C@H]1O[C@H](CO)[C@@H](O)[C@H](N)[C@H]1O [AMIKACIN],MIC,[3],5.33 µM
same,MIC,[4],3.41 µM
CCN(C(=O)C1=CC(c2cc(Br)ccc2F)N2N=CNC2=N1)c1ccccc1 (stereo not given),MIC,[5],2.26 µM
Cc1noc(N)c1C(=O)N/N=C/c1ccncc1,MIC,[6],0.14 µM
Cc1noc(N)c1C(=O)N/N=C/c1ccc(Cl)c(Cl)c1,MIC,[6],0.21 µM
COc1ccc(/C=N/NC(=O)c2c(C)noc2N)cc1,MIC,[6],0.24 µM
C=C[C@@](C)(O)CC/C=C(/C)CCC=C(C)C [NEROLIDIOL],MIC,[1],44.5 µM
O=c1cc(-c2ccc(O)c(O)c2)oc2cc(O)cc(O)c12 [LUTEOLIN],MIC,[7],0.12 µM
Cc1noc(N)c1C(=O)N/N=C/c1ccc([N+](=O)[O-])cc1,MIC,[6],51.1 µM
CC1(C)CCC(Cc2cc(O)c(-c3ccccc3)c(=O)[nH]2)CC1,MIC,[8],0.13 µM
CC(NC(=O)C1=CC(c2cc(Br)ccc2F)N2N=CNC2=N1)c1ccccc1 (stereo not given),MIC,[5],2.26 µM
C[C@]12CC[C@@H]3c4ccc(OCCCCCCC[n+]5ccccc5)cc4CC[C@H]3[C@@H]1CCC2=O,MIC,[2],3.81 µM
Cc1noc(N)c1C(=O)N/N=C/c1ccc(Cl)cc1Cl,MIC,[6],55.3 µM
C#CCNC(=O)C1=CC(c2cc(Br)ccc2F)N2N=CNC2=N1 (stereo not given),MIC,[5],2.65 µM
CC(C)/C(=C/CN(C)C)CC[C@@H](C)[C@H]1CC[C@H]2C3=CC[C@H]4C[C@@H](N(C)C)CC[C@]4(C)[C@H]3CC[C@]12C,MIC,[2],67.2 µM
O=c1cc(-c2ccc(O)cc2)oc2c([C@@H]3O[C@H](CO)[C@@H](O)[C@H](O)[C@H]3O)c(O)cc(O)c12,MIC,[7],69.4 µM
CC(C)c1c(O)ccc2c1CC[C@H]1C(C)(C)CCC[C@]21C [TOTAROL],MIC,[1],14 µM
Cc1noc(N)c1C(=O)N/N=C/c1ccc(C(F)(F)F)cc1,MIC,[6],0.21 µM
C=C1[C@H]2CC[C@@H]3[C@H]2C(C)(C)CCC[C@]13C [LONGIFORENE],MIC,[1],> 0.63 µM
CC[C@H]1OC(=O)[C@H](C)[C@@H](O[C@H]2C[C@@](C)(OC)[C@@H](O)[C@H](C)O2)[C@H](C)[C@@H](O[C@@H]2O[C@H](C)C[C@H](N(C)C)[C@H]2O)[C@](C)(OC)C[C@@H](C)C(=O)[C@H](C)[C@@H](O)[C@]1(C)O [CLARITHROMYCIN],MIC,[4],1.34 µM
Cc1cc(NS(=O)(=O)c2ccc(N)cc2)no1 [SULFAMETHOXAZOLE],MIC,[4],126 µM
